*1 amine or outer side, *2 acyl side, *3 side chain or, on linkers, in order; H or OH if unused. Where a SMILES comes first, the peptide text is derived from it. Side-chain parts run from the residue outwards. The star is where a group is joined. γGlu = O=C(O)[C@H](CCC(=O)[*:2])N[*:1]; Palmitoyl = CCCCCCCCCCCCCCCC(=O)*
What was measured:
[1] = tested on: cisplatin‐resistant cancer cells; assay: Growth inhibition in cisplatin‐resistant cancer cells; format: cell-based, human; conditions: cisplatin‐resistant variants of Hep3B, HCT116, MDA‐MB‐231
Description: Information of the cell lines is listed in Table S1 (Supporting Information), including their origin and culture conditions. All cell lines were cultured at 37 °C, 5% CO2 incubator. MDA‐MB‐231 (LM1), HepG2, Hep3B, and HCT116 cell lines were authenticated with short tandem repeat markers based on ATCC information. All cell lines tested negative for mycoplasma contamination. Transient downregulation of the gene of interest was conducted by siRNA transfection using Lipofectamine 2000 (Thermo Fisher, 11668019) according to the manufacturer's instructions. Information about siRNAs is provided in Table S2 (Supporting Information). […] For erythroid terminal differentiation experiments, differentiation was assessed by hemoglobin staining using a 0.2% (w/v) tetramethylbenzidine solution (Sigma–Aldrich, T0440) in 0.6% hydrogen peroxide, 3% acetic acid for 10 min in dark condition. Benzidine‐positive or negative cell numbers were counted under the inverted microscope BX50 (Olympus) at 200 × magnification. […] After each synchronization, cells were fixed at 4‐h intervals for 24 h with ACP52C treatment, and the cell cycle was analyzed by Propidium Iodide (PI) staining or intracellular protein was analyzed by immunofluorescence. […] This development period was repeated four times for one round, after which GI50 concentrations were re‐assessed in each resistant cell line. […]

[2] = tested on: MDA‐MB‐231 LM1 breast cancer; assay: MDA‐MB‐231 LM1 CDX mouse model; format: in vivo
Description: Animal experiments were conducted in accordance with ethical guidelines, and all protocols were approved by the Institutional Animal Care and Use Committee under Hanyang University (approval numbers, 2014‐0016A, 2018‐0049A, 2018‐0207A, and 2019‐0169A), Chung‐Ang University (approval number, 2015‐00022), Chungbuk University (approval number, CBNUA‐1072‐17‐02), and Konkuk University (approval number, KU17130). To establish xenograft mice models, Hep3B, A431, U343, and PC9 cells were subcutaneously injected into the flank of Balb/c nude mice. For the MDA‐MB‐231 (LM1) cell line, it was implanted into the mammary fat pad of immunodeficient mice (NPG mice). […] Tumor volume was calculated using the formula of length × width^2)/2. […] The in vivo administration amount was determined based on the concentration of ACP52C confirmed at the cellular level, which was 2 µM. […] For ACP52C derivatives, the amount was adjusted to ensure a similar molar quantity of peptide injection, taking their molecular weights into account. For instance, in the case of ACP52CGK, ≈1.67 times the quantity was used compared to ACP52C to achieve an equivalent molar quantity. […] Hematoxylin and eosin (H&E)‐stained tissue sections were analyzed and photographed, and the representative histological images were recorded. […]

[3] = tested on: diethylnitrosamine (DEN)‐induced orthotopic liver cancer; assay: DEN‐induced orthotopic liver cancer mouse model; format: in vivo; conditions: administered at five‐day intervals, C57BL/6 mice

Row | Compound | anticancer activity in cisplatin‐resistant cells [1] | tumor weight ([2]; intravenous injection every 2 or 3 days from day 14) | anti‐tumor efficacy ([2]; administered at five‐day intervals, NPG mice) | anti‐tumor efficacy [3]
1 | CC(=O)N[C@@H](CC(N)=O)C(=O)N[C@@H](Cc1ccc(O)cc1)C(=O)N1CCC[C@H]1C(=O)N[C@@H](CCC(N)=O)C(=O)N[C@@H](CCCNC(=N)N)C(=O)N1CCC[C@H]1C(=O)N[C@@H](CS)C(=O)N[C@@H](CCCNC(=N)N)C(=O)NCC(=O)N[C@@H](CC(=O)O)C(=O)N[C@@H](CCCCN)C(=O)NCC(=O)N1CCC[C@H]1C(=O)N[C@@H](CC(=O)O)C(=O)N[C@@H](CS)C(N)=O [ACP52C] (Ac-NYPQRPCRGDKGPDC-NH2) | effectiveness in targeting cisplatin‐resistant cancer cells | significantly reduced tumor weight | – | –
2 | CCCCCCCCCCCCCCCC(=O)N[C@@H](CCC(=O)NCCCC[C@H](NC(=O)CNC(=O)CNC(=O)[C@@H]1CCCN1C(=O)[C@H](CCCNC(=N)N)NC(=O)[C@H](CCC(N)=O)NC(=O)[C@@H]1CCCN1C(=O)[C@H](Cc1ccc(O)cc1)NC(=O)[C@H](CC(N)=O)NC(C)=O)C(=O)NCC(=O)NCC(=O)N[C@@H](CS)C(=O)N[C@@H](CCCNC(=N)N)C(=O)NCC(=O)N[C@@H](CC(=O)O)C(=O)N[C@@H](CCCCN)C(=O)NCC(=O)N1CCC[C@H]1C(=O)N[C@@H](CC(=O)O)C(=O)N[C@@H](CS)C(N)=O)C(=O)O [ACP52CGK] (Ac-NYPQRPGGK([γGlu-Palmitoyl])GGCRGDKGPDC-NH2) | – | – | remarkable anti‐tumor efficacy | remarkable anti‐tumor efficacy
